# Measurements as given in ChEMBL document CHEMBL4041544, “Discovery of new selective glucocorticoid receptor agonist leads” (Bioorg Med Chem Lett, 2017).
# Columns and labels:
# [1] = biological target: T1, Progesterone receptor (Homo sapiens, UniProt P06401); assay: Binding affinity to recombinant human progesterone receptor expressed in baculovirus infected sf9 cells
# T1 sequence (P06401 whole entry): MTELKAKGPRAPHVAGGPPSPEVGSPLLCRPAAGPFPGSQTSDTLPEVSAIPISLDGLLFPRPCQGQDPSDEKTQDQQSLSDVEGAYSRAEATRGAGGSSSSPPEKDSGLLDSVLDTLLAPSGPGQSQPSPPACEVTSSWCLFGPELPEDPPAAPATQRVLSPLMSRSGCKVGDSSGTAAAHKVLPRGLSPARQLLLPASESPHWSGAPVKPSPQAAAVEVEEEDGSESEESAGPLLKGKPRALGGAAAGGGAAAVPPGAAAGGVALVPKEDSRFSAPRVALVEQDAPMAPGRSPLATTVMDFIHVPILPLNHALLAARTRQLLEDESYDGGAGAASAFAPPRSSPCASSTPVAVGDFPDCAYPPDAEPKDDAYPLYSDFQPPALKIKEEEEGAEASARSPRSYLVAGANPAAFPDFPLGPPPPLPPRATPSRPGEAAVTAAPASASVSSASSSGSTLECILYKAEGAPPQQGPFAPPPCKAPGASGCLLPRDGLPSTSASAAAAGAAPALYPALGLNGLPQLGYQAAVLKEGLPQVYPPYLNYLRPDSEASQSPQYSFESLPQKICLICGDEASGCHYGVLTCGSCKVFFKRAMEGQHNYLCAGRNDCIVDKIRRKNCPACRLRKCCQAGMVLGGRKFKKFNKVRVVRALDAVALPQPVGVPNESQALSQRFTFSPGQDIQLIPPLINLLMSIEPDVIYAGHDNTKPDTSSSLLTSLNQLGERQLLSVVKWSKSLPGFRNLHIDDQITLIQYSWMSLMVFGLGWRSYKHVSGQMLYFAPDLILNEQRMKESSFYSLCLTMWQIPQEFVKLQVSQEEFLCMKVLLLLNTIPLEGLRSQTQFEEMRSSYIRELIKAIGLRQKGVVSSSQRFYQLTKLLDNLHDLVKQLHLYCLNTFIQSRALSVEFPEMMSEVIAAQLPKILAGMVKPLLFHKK
# [2] = biological target: T2, Glucocorticoid receptor (Homo sapiens, UniProt P04150); assay: Transrepression activity at glucocorticoid receptorin human HeLa cells assessed as inhibition of TPA-induced collagenase promoter activity by luciferase reporter gene assay; type: cell-based
# T2 sequence (P04150 whole entry): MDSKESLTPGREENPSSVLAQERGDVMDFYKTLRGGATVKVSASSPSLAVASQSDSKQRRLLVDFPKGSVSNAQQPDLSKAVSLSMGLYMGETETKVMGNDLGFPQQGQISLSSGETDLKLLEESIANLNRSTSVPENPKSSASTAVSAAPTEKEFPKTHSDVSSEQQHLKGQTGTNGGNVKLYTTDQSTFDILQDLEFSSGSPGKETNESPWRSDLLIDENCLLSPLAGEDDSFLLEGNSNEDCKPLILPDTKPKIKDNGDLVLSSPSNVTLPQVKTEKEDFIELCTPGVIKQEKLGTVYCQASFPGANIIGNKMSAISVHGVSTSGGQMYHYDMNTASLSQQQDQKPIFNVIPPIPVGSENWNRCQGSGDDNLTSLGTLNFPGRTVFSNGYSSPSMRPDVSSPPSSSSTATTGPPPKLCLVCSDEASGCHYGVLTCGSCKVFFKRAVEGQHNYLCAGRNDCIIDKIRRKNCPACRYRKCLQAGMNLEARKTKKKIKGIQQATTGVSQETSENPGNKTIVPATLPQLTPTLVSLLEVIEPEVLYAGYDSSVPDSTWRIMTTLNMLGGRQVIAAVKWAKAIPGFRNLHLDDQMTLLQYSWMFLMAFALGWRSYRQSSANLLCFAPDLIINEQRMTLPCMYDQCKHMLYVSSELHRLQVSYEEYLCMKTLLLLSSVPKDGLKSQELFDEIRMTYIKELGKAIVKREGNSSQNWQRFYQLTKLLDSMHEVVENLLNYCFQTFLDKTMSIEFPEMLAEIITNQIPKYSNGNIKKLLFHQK
# [3] = biological target: T2, Glucocorticoid receptor; assay: Transrepression activity at glucocorticoid receptor in human THP1 cells assessed as receptor-mediated anti-inflammatory activity by measuring inhibition of LPS-induced IL-8 production; type: cell-based
# [4] = biological target: T3, Mineralocorticoid receptor (Homo sapiens, UniProt P08235); assay: Binding affinity to recombinant human mineralocorticoid receptor expressed in baculovirus infected sf9 cells
# T3 sequence (P08235 whole entry): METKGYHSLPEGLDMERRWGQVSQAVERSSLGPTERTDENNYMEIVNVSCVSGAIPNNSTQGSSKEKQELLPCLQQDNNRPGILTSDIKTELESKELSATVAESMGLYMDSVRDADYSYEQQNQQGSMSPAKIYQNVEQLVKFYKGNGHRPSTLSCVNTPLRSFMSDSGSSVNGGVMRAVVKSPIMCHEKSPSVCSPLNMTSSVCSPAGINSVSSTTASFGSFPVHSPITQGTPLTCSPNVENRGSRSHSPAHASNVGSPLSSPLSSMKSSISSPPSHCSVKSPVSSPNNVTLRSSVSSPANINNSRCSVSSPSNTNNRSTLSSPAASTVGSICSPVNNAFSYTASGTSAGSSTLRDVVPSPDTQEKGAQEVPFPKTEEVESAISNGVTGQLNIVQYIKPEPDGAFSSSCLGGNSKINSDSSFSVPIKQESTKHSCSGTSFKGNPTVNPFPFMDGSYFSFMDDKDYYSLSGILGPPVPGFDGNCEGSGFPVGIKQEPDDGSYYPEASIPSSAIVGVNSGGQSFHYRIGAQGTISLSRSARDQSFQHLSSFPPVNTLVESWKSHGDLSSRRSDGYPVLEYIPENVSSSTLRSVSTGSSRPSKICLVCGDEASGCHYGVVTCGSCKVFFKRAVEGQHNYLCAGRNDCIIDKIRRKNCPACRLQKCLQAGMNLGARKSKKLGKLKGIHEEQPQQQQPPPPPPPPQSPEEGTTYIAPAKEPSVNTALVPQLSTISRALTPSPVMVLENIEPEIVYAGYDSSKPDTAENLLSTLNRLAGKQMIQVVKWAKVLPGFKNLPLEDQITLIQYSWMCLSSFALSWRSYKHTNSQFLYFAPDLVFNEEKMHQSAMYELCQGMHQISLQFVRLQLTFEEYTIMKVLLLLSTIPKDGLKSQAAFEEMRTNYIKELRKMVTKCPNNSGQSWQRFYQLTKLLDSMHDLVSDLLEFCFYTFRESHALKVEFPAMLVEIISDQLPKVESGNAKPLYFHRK
# [5] = biological target: T2, Glucocorticoid receptor; assay: Binding affinity to recombinant human glucocorticoid receptor expressed in baculovirus infected sf9 cells
# [6] = Stability in human liver microsomes assessed as drug recovery after 30 mins; type: ADME, microsome; conditions: read-out: Drug recovery
# [7] = biological target: T2, Glucocorticoid receptor; assay: Transactivation activity at glucocorticoid receptor in human HeLa cells assessed as induction of MMTV promoter activity by luciferase reporter gene assay; type: cell-based
# [8] = biological target: T4, Androgen receptor (Homo sapiens, UniProt P10275); assay: Binding affinity to recombinant human androgen receptor expressed in baculovirus infected sf9 cells
# T4 sequence (P10275 whole entry): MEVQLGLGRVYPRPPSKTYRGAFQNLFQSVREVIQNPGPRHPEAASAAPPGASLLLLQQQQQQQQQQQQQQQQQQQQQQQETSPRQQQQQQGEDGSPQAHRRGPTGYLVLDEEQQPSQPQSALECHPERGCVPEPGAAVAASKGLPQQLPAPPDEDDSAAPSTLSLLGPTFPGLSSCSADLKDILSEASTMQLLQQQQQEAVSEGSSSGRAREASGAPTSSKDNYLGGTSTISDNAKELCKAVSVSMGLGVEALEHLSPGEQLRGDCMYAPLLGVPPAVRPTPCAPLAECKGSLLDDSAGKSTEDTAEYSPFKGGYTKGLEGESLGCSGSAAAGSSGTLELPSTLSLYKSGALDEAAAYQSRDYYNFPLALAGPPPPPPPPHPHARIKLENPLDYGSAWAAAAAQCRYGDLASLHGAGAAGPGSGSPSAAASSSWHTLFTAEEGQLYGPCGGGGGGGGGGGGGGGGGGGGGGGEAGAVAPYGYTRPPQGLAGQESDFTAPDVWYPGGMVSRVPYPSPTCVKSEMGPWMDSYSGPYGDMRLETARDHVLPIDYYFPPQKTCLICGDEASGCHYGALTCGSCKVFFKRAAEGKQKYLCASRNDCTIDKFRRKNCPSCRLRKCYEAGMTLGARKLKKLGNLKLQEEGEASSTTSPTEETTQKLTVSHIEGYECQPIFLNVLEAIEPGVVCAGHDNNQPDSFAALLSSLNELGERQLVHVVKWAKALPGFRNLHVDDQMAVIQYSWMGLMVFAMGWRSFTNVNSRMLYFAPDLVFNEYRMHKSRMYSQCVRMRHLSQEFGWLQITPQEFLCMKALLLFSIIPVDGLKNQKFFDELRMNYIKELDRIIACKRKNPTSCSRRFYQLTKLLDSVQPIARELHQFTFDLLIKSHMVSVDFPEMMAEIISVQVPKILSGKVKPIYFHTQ
# [9] = system: Rattus norvegicus; assay: Anti-inflammatory activity in Wistar rat assessed as inhibition of croton oil-induced ear edema at 30 mg/kg, po relative to control; type: functional
# [10] = system: Rattus norvegicus; assay: Anti-inflammatory activity in po dosed Wistar rat assessed as inhibition of croton oil-induced ear edema; type: functional
# [11] = system: Rattus norvegicus; assay: Anti-inflammatory activity in Brown Norway rat assessed as inhibition of TMA-induced ear edema at 30 mg/kg, po relative to control; type: functional
# [12] = system: Rattus norvegicus; assay: Anti-inflammatory activity in po dosed Brown Norway rat assessed as inhibition of TMA-induced ear edema; type: functional
smiles,measurement,setting,value
C[C@@H]1C[C@H]2[C@@H]3CCC4=CC(=O)C=C[C@]4(C)[C@@]3(F)[C@@H](O)C[C@]2(C)[C@@]1(O)C(=O)CO [DEXAMETHASONE],IC50,[1],> 1000 nM
CC1(C)C[C@](O)(C(F)(F)F)[C@@H](Nc2cccc3c(=O)[nH]ccc23)c2ccc(F)c(O)c21 (racemic),IC50,[1],794 nM
same,IC50,[2],6.31 nM
same,IC50,[3],6.31 nM
same,IC50,[4],> 1000 nM
same,IC50,[5],20 nM
same,remaining at 0.5 h,[6],48%
same,pEC50,[7],7.9
same,IC50,[8],316 nM
C[C@]12C=CC(=O)C=C1CC[C@@H]1[C@@H]2[C@@H](O)C[C@@]2(C)[C@H]1CC[C@]2(O)C(=O)CO [PREDNISOLONE],Imax,[9],83%
same,ED50,[10],15.7 mg/kg
same,Imax,[11],107%
same,ED50,[12],6.7 mg/kg
CCSC[C@@](O)([C@@H](Nc1cccc2nc(C)ccc12)c1ccc(OC)c(F)c1Cl)C(F)(F)F,IC50,[1],794 nM
same,IC50,[4],> 1000 nM
same,IC50,[8],> 1000 nM
Cc1ncc2c(N[C@H]3c4ccc(F)c(O)c4C(C)(C)C[C@]3(O)C(F)(F)F)cc(F)cc2n1,IC50,[1],> 1000 nM
same,IC50,[2],39.8 nM
same,IC50,[3],39.8 nM
same,IC50,[4],> 1000 nM
same,IC50,[5],126 nM
same,pEC50,[7],6.8
same,IC50,[8],> 1000 nM
CC[C@@H]1C[C@](O)(C(F)(F)F)[C@@H](Nc2cccc3nc(C)ccc23)c2ccc(F)c(O)c21,IC50,[1],794 nM
same,IC50,[2],5.01 nM
same,IC50,[3],5.01 nM
same,IC50,[4],> 1000 nM
same,IC50,[5],12.6 nM
same,remaining at 0.5 h,[6],86%
same,pEC50,[7],7.9
same,IC50,[8],> 1000 nM
CC1(C)C[C@](O)(C(F)(F)F)[C@@H](Nc2cccc3[nH]c(=O)ccc23)c2ccc(F)c(O)c21,IC50,[1],794 nM
same,IC50,[2],15.8 nM
same,IC50,[3],15.8 nM
same,IC50,[4],> 1000 nM
same,IC50,[5],15.8 nM
same,pEC50,[7],7.6
same,IC50,[8],794 nM
